Data set [1] is described as follows: Body weight during TMZ/vehicle i.p. injection protocol. The data set is classed as in vivo. Particulars: mice given TMZ or vehicle i.p. on three consecutive days per week for four weeks. As for the experimental part:
The enriched environment (groups 2 and 3) included a running wheel, two different objects, small ball, a short plastic tube, bedding, and a nest. Control animals (groups 1 and 4) were in standard cages including bedding and nest. In both conditions, three mice were housed per cage for four weeks. The mice received a TMZ/vehicle i.p. injection three times a week. On day 29, the mice received a BrdU i.p. injection and were perfused 24 h later for IHC analysis. For neurogenesis suppression, TMZ was dissolved in DMSO at 25 mg/ml and diluted to 1.25 mg/ml in sterile saline. The mice were given i.p. injections of saline +5% DMSO (vehicle) or TMZ on three consecutive days followed by four days with no injection for four weeks. On the last week, BrdU was given i.p. in 0.9% NaCl at 200 mg/kg body weight.
Sixteen (16) eEF2K double foxed mice were injected with CaMKII-Cre and GFP viruses to the DG and 3 weeks following virus injection were injected i.p TMZ and vehicle. TMZ was dissolved in DMSO at 25 mg/ml and diluted to 1.25 mg/ml in sterile saline. The mice were given i.p. injections of saline +5% DMSO (vehicle) or TMZ on three consecutive days followed by four days with no injection for four weeks. On the last week, BrdU was given i.p. in 0.9% NaCl at 200 mg/kg body weight. […]

Data set [2] deals with WT mice. As to the kind of experiment: Forced swim test. The data set is classed as in vivo. The following applies: WT naive mice, ketamine 5 mg/kg i.p., 30 min before test, vs saline; last 4 min scored. As for the experimental part:
WT mice were injected with ketamine 5 mg/kg or saline i.p., and 30 min later together with the CaMKII Cre/GFP-injected mice were all subjected to the forced swim test (FST). The mice were placed in a 5-liter transparent glass beaker containing 4-liter warm water at 24° C. The mice were video recorded for 6 min. The last 4 min were manually scored for immobility. Total immobility time (in seconds) is presented in the results.

Data set [3] concerns eEF2 (pThr56eEF2). As to the kind of experiment: Western blot of pThr56eEF2, eEF2 and tubulin in DG and cortex samples after ketamine i.p. injection. The data set is classed as in vivo, mice. Particulars: 30 min after injection; for pThr56eEF2 normalized to total eEF2 in DG lysates: dentate gyrus. On the procedure:
Mouse brains were quickly excised and snap frozen immediately in liquid nitrogen, and then transferred to −80° C. for later use. The brains were kept in the cryostat cabin for 15 min at −15° C. before starting tissue punching. Four 500 μm thick coronal sections were sliced slowly, and the DG and cortex tissues from both hemispheres were collected by a mouse tissue puncher. The DG and cortex tissues were transferred to a new tubes and kept immediately on dry ice and then transferred to −80° C. until further use. Brain tissues were homogenized in 100 μl of ice-cold homogenization buffer (HEPES 10 mM pH 7.4, EDTA 2 mM pH 7.4, EGTA 2 mM pH 7.4, DTT 0.5 mM (all from Sigma-Aldrich, Rehovot, Israel), 1× protease inhibitor mixture (Sigma-Aldrich Rehovot, Israel); and 1× phosphatase inhibitor mixture (Sigma-Aldrich)). Protein concentration was determined by a BCA kit (CYANAGEN, PRTD1, 0500). Protein Samples were prepared in SDS sample buffer (22.22% glycerol, 22.22% SDS (20% stock), 26.66% (0.5 M Tris PH 6.8), rest DDW) and β-Mercaptoethanol, then were boiled in 100° C. for 5 min. Each sample was divided to 3 aliquots. Each aliquot was thawed on ice and used for blotting only once or twice. The samples were subjected to 10% or 12% gel SDS-PAGE (electrophoresed on Bio-Rad PAGE apparatus) and Western blot analysis. Each sample was loaded with the same amount of total protein (8-12 μg; according to antibody linearity). After transfer to a […] pore size nitrocellulose membrane or PVDF membrane, the blots were blocked with 5% bovine serum albumin (BSA) or non-fat dry milk (blotting-grade blocker, Bio-Rad) in Tris-buffered saline plus 0.5% tween-20 (TBST) at room temperature for 1 hr. The blots were incubated overnight with the suitable primary antibodies. The blots were then subjected to three 5 min washing steps in TBST, after which they were incubated with the corresponding HRP-conjugated secondary antibodies for 1 h at room temperature followed by three 10 min washing steps with TBST. Immunodetection was performed with the enhanced-chemiluminescence EZ-ECL kit (Biological Industries, Israel). The immunoblots were quantified with a CCD camera and Quantity One software (Bio-Rad).
For all tested proteins, polyacrylamide gels were freshly prepared and used on the same day. Polyacrylamide gels (10%, Tris pH 8.8) were used to analyze the expression of eEF2, pThr56eEF2, vimentin, decorin, AMPK, pThr172AMPK, KIFSA, ERK2, pERK2, pS6K1, S6K1 and tubulin. In addition, criterion gels (BIO-RAD) were used to analyze the expression of NSF protein in the different fractions. Samples containing 10 μg protein were loaded for the detection of each protein. Samples containing 8 μg protein were loaded for ERK and pERK and […] for S6K1 and pS6K1. Each immunoblot was measured relative to the background and normalized to the endogenous control (tubulin), taken from the same gel. Mature-BDNF was analyzed using 12% (Tris pH 8.8) polyacrylamide gel and was measured relative to the background and normalized to tubulin from the same gel. Samples containing 12 μg protein were loaded for mature-BDNF. The phoshpo-protein was normalized to tubulin taken from the same gel as well.
On the technique in general: A western blot detects proteins with antibodies after separation by electrophoresis.

Where [4] appears, read: ketamine 5 mg/kg i.p. vs control, cortex.
[5] abbreviates: ketamine 5 mg/kg i.p. vs saline.

The structures appear in SMILES notation.

On to `Cn1nnc2c(C(N)=O)ncn2c1=O` [TMZ, Temozolomide], for which, in data set [1], the “body weight throughout the experiment” value is on record as “maintained normal body weight”.
As for `CNC1(c2ccccc2Cl)CCCCC1=O` (stereo not shown) [ketamine], the “immobility time in forced swim test” value in data set [2] is reported as “significantly lower immobility time”. Besides, in data set [3] (setting [4]), the “eEF2 protein level normalized to tubulin in cortex tissue” value was “no change in eEF2 protein level” and the “pT56eEF2 normalized to eEF2 protein in cortex tissue” value is reported as “reduces pT56eEF2 levels”. Also, in data set [3] (setting [5]), the “eEF2 protein levels normalized to tubulin (DG samples)” value is listed as “no change in eEF2 protein levels” and the “pThr56eEF2 normalized to total eEF2 in DG lysates” value is “peEF2 levels were reduced”. The “pThr56eEF2 normalized to total eEF2 in DG lysates” value in data set [3] (ketamine 5 mg/kg i.p. vs saline, listed as Ketamine) is recorded as “induces eEF2 dephosphorylation”.
